# Laboratory results published in patent US6399649B1, “Compositions and methods for the treatment of chronic lymphocytic leukemia” (Boston Medical Center Corporation, priority 1998, dated 2002).
# Assays:
# Format in all cases: cell-based, human
# CD19+ B cells = test: cAMP assay (RIA) in CD19+ B cells; conditions: at two hours; unstimulated or anti-Ig stimulated
# Method: (§1) One million cells in 1 mL were treated for two hours with or without drugs. 0.8 mL of cells were pelleted by spinning at 4,000 rpm (RCF=1,310) in microcentrifuge tube. After discarding 0.7 mL, 400 uL of ethanol was added, vortexed and left on ice for five minutes. Particulate cell debris was removed by centrifugation at 14,000 rpm (RCF=16,000). The supernatant was stored at −20° C. until the day of assay, at which time it was dried in a Speedivac (Savant, Farmingdale, N.Y.) to a volume of 50 uL. After ten-fold dilution in 10 mMol/L Tris pH 8.0, 1 mMol/L EDTA, the cAMP sample was analyzed for cAMP concentration using a cAMP RIA kit (NEN, Boston, Mass.) according to the manufacturer's instructions using the nonacetylated protocol.
# (§2) For each of the four cell populations, two or six hours after drug treatment, cAMP levels were higher for rolipram/forskolin-treated cells than for forskolin only treated cells (test: one tailed significance level<0.05) (FIG. 9).
# PDE-4B transcript = test: Northern analysis of PDE-4B transcript in cultured CLL cells; conditions: 10 uMol/L, six hour culture period
# Method: RNA was isolated from CLL or whole mononuclear cells using Ultraspec reagent (Biotecx, Houston, Tex.). cDNA was synthesized from 10 ug of total RNA using oligo d(T) primers and Maloney murine leukemia virus reverse transcriptase in a final volume of 40 uL (Stratagene, La Jolla, Calif.). One mL of the first strand cDNA product was then used as template for PCR amplification with AmpliTaq DNA polymerase (Roche Molecular Systems, Branchburg, N.J.) by 40 thermocycles of 94° C. for 1 minute, 600° C. for 1 minute and 72° C. for 1 minute. […] For hybridization to Northern blots, these PCR products were subcloned into a plasmid vector (pCRII, Invitrogen, Carlsbad, Calif.) and subsequently utilized for PCR-based amplification of a32P dATP-labelled probes.
# RNA was isolated from 20 million CLL cells immediately after cell purification (CT), or after 6 hours culture in media alone (6 Hr) or with addition of 10 uMol/L rolipram (Roli). Equal loading and transfer of RNA was confirmed by hybridization with an actin probe as shown.
# [1] = test system: magnetic bead purified CD19+B cells; test: Hoechst 33342 apoptosis assay, CD19+ B cells
# Method: Hoechst 33342 was dissolved in water and frozen at 33 mg/mL at −20° C. One million cells/well were incubated in duplicate or triplicate in 48 well tissue culture plates (Costar, Cambridge, Mass.) with or without drug treatment for […] in 1 mL of culture media. Cells were transferred to 12×75 mm polystyrene Falcon® 2054 FACS tubes (Becton Dickinson Labware, Lincoln Park, N.J.) and incubated for ten minutes at 37° C. with Hoechst 33342 at a final concentration of […]. 23 Cells were stored on ice until analysis on a FACS Vantage flow cytometer (Becton Dickinson, San Jose, Calif.). Hoechst 33342 dye fluorescence was excited with a UV laser and detected using a 450 bandpass filter; Data was analyzed using Cellquest software (Becton Dickinson, San Jose, Calif.).
# This example describes the effect of PDE4 inhibition on normal B and T cells. […] Specifically, one million WMC were cultured with the indicated concentration of rolipram with or without the addition of 40 uMol/L forskolin for 72 hours in the presence of 2 units/mL IL-2. Apoptosis was determined by Hoechst 33342 flow cytometry. […] In contrast, magnetic bead purified CD19+B cells were sensitive to rolipram, although the increment in apoptosis observed was superimposed on a high basal apoptosis rate that has previously been reported in cultured human B cells. Given that crosslinking of cell surface immunoglobulin on resting B cells has been reported to reduce basal and forskolin-induced apoptosis in culture, we also stimulated CD19+ cells with a polyclonal Fab′2 anti-IgM/IgG reagent 30 minutes prior to the addition of the phosphodiesterase inhibitor.
# [2] = test system: CLL cells, resting or anti-Ig activated CD19+ cells, IL-2 supplemented WMC; test: cAMP time course in four cell populations; conditions: 24 hours; any of the four cell populations
# Method: as §1, with “One million cells in 1 mL were treated for two hours with or without drugs.” left out
# as §2
# CLL cells = test: DNA ladder gel assay; conditions: 72 hours; 10 uMol/L rolipram, 40 uMol/L forskolin
# Method: 10 million purified CLL cells were harvested by centrifugation following exposure to drugs during a 72 hour tissue culture incubation. Cells were lysed in 0.5 mL of 20 mMol/L Tris (pH 7.4), 0.4 mMol/L EDTA, 0.25% Triton X. After 15 minutes of incubation at room temperature, nuclei were removed by centrifugation at 14,000 rpm (RCF=16,000). The supernatant was transferred to a new tube and soluble DNA precipitated overnight at −20° C. following the addition of […] of 5 Mol/L NaCl and […] of isopropanol. After centrifugation at 14000 rpm for 10 minutes, followed by a 70% ethanol wash, the pellet was resuspended in 20 uL of 10 mMol/L Tris (pH 8.0), 1 mMol/L EDTA, 0.1 mg/mL RNase and incubated at 37° C. for 30 minutes prior to electrophoresis on 1.6% TBE agarose gels. DNA fragments were visualized by UV light after staining the gels with ethidium bromide.
# Consequently, a study of the activity of type 4-specific PDE inhibitors as inducers of cAMP-mediated apoptosis in leukemic cells from CLL patients was carried out. CLL cells were incubated for 72 hours either alone or with 10 uMol/L rolipram, 40 uMol/L forskolin or both agents. We tested whether rolipram induces intemucleosomal DNA fragmentation characteristic of apoptosis by isolating soluble DNA from the leukemic cells with detergent treatment, then removing DNA from intact non-apoptotic nuclei by centrifugation. […]
smiles,measurement,setting,value
"COc1ccc(C2CNC(=O)C2)cc1OC1CCCC1 (racemic) [rolipram, 4-(3-cyclopentyloxy-4-methoxyphenyl)-2-pyrrolidone]",cAMP levels in CD19+ B cells,CD19+ B cells,raised cAMP levels equivalently
same,PDE-4B transcript levels,PDE-4B transcript,significantly reduced this fall in PDE-4B transcript levels
same,apoptosis of anti-Ig stimulated CD19+ B cells,[1]; polyclonal Fab'2 anti-IgM/IgG 30 minutes prior to inhibitor,markedly reduced both basal apoptosis and the sensitivity of the B cells to rolipram
same,apoptosis of CD19+ B cells,"[1]; unstimulated, high basal apoptosis rate",sensitive
same,augmentation of forskolin-stimulated cAMP accumulation,[2],no longer significant rolipram-induced augmentation
same,internucleosomal DNA fragmentation,CLL cells,pronounced internucleosomal DNA fragmentation
